Results: patent US9981976B2, “Piperidine substituted pyrazolo[1,5-A]pyrimidine derivatives with inhibitory activity on the replication of the respiratory syncytial virus (RSV)” (priority 2014, dated 2018)

What was measured:
[1] = system: rgRSV224 virus; assay: microbe, parasite or virus in culture; assay type: cell-based, respiratory syncytial virus (RSV); conditions: for EC50: human respiratory syncytial virus, HeLa, 72 h, read-out: RSV HELA pEC50, rgRSV224 virus (MOI=1), HeLa cells, GFP expression three days post-virus exposure (converted)
[2] = system: HeLa cells; assay: Cytotoxicity in HeLa cells, ATP content (ATPlite kit); conditions: three days incubation, CC50 = 50% concentration for cytotoxicity
Experimental: Black 384-well clear-bottom microtiter plates (Corning, Amsterdam, The Netherlands) were filled via acoustic drop ejection using the echo liquid handler (Labcyte, Sunnyvale, Calif.). 200 nL of compound stock solutions (100% DMSO) were transferred to the assay plates. 9 serial 4-fold dilutions of compound were made, creating per quadrant the same compound concentration. The assay was initiated by adding 10 μL of culture medium to each well (RPMI medium without phenol red, 10% FBS-heat inactivated, 0.04% gentamycin (50 mg/mL). All addition steps are done by using a multidrop dispenser (Thermo Scientific, Erembodegem, Belgium). Next, rgRSV224 virus (MOI=1) diluted in culture medium was added to the plates. rgRSV224 virus is an engineered virus that includes an additional GFP gene (Hallak L K, Spillmann D, Collins P L, Peeples M E. Glycosaminoglycan sulfation requirements for respiratory syncytial virus infection; Journal of virology (2000), 74(22), 10508-13) and was in-licensed from the NIH (Bethesda, Md., USA). Finally, 20 μL of a HeLa cell suspension (3,000 cells/well) were plated. Medium, virus- and mock-infected controls were included in each test. The wells contain 0.05% DMSO per volume. Cells were incubated at 37° C. in a 5% CO2 atmosphere. Three days post-virus exposure, viral replication was quantified by measuring GFP expression in the cells by an in house developed MSM laser microscope (Tibotec, Beerse, Belgium). The EC50 was defined as the 50% inhibitory concentration for GFP expression. In parallel, compounds were incubated for three days in a set of white 384-well microtiter plates (Corning) and the cytotoxicity of compounds in HeLa cells was determined by measuring the ATP content of the cells using the ATPlite kit (Perkin Elmer, Zaventem, Belgium) according to the manufacturer's instructions. The CC50 was defined as the 50% concentration for cytotoxicity.

Compound | EC50 [1] [nM] | SI TOX HELA [2] | RSV HELA pEC50 ([1]; rgRSV224 virus (MOI=1), HeLa cells, GFP expression three days post-virus exposure)
Cc1cn2nc(C3CCCCN3c3ncnc4cccc(C)c34)cc2nc1N1CC(O)C1 (centres unmarked) [P23, 1-(6-methyl-2-(1-(5-methylquinazolin-4-yl)piperidin-2-yl)pyrazolo-[1,5-a]pyrimidin-5-yl)azetidin-3-ol] | 15.8 | <4.6 | 
Cc1cn2nc([C@H]3CCCCN3c3ncnc4cccc(C)c34)cc2nc1N1CC(O)C1 [P24, (R)-1-(6-methyl-2-(1-(5-methylquinazolin-4-yl)piperidin-2-yl)pyrazolo[1,5-a]-pyrimidin-5-yl)azetidin-3-ol] | > 25100 | <4.6 | 
Cc1cn2nc([C@@H]3CCCCN3c3ncnc4cccc(C)c34)cc2nc1N1CC(O)C1 [P25, (S)-1-(6-methyl-2-(1-(5-methylquinazolin-4-yl)-piperidin-2-yl)pyrazolo[1,5-a]pyrimidin-5-yl)azetidin-3-ol] | 31.6 | <4.6 | 
Cc1cn2nc(C3CCCCN3c3ncnc4cccc(C)c34)cc2nc1N1CC(N)C1 (centres unmarked) [P26, 1-(6-methyl-2-(1-(5-methylquinazolin-4-yl)piperidin-2-yl)pyrazolo-[1,5-a]pyrimidin-5-yl)azetidin-3-amine] | 25.1 | 4.3 | 
COC(=O)Nc1nc(N2CCCCC2c2cc3nc(N4CCC4)cc(N4CCOCC4)n3n2)c2c(C)cccc2n1 (centres unmarked) [P29, methyl (4-(2-(5-(azetidin-1-yl)-7-morpholinopyrazolo[1,5-a]-pyrimidin-2-yl)piperidin-1-yl)-5-methylquinazolin-2-yl)carbamate] | 398 | 4.5 | 
Cc1cccc2nc(C(=N)NO)nc(N3CCCCC3c3cc4nc(N5CCC5)cc(N5CCOCC5)n4n3)c12 (centres unmarked) [P30, 4-(2-(5-(azetidin-1-yl)-7-morpholinopyrazolo[1,5-a]pyrimidin-2-yl)-piperidin-1-yl)-N-hydroxy-5-methylquinazoline-2-carboximidamide] | 631 | 4.6 | 
CCOc1nc(N2CCCCC2c2cc3nc(N4CCC4)cc(N4CCOCC4)n3n2)c2c(C)cccc2n1 (centres unmarked) [P31, 4-(5-(azetidin-1-yl)-2-(1-(2-ethoxy-5-methylquinazolin-4-yl)piperidin-2-yl)pyrazolo[1,5-a]pyrimidin-7-yl)morpholine] | 158 | 4.8 | 
CS(=O)(=O)Nc1nc(N2CCCC[C@H]2c2cc3nc(N4CCC4)cc(N4CCOCC4)n3n2)c2cc(Cl)ccc2n1 [P33, (S)—N-(4-(2-(5-(azetidin-1-yl)-7-morpholinopyrazolo[1,5-a]-pyrimidin-2-yl)piperidin-1-yl)-6-chloroquinazolin-2-yl)methanesulfonamide] |  | 4.2 | 7.88
CS(=O)(=O)Nc1nc(N2CCCC[C@@H]2c2cc3nc(N4CCC4)cc(N4CCOCC4)n3n2)c2cc(Cl)ccc2n1 [P34, (R)—N-(4-(2-(5-(azetidin-1-yl)-7-morpholinopyrazolo[1,5-a]-pyrimidin-2-yl)piperidin-1-yl)-6-chloroquinazolin-2-yl)methanesulfonamide] | 631 | 4.3 | 
Clc1cccc2ncnc(N3CCCCC3c3cc4nc(N5CCC5)cc(N5CCOCC5)n4n3)c12 (centres unmarked) [P35, 4-(5-(azetidin-1-yl)-2-(1-(5-chloroquinazolin-4-yl)piperidin-2-yl)-pyrazolo[1,5-a]pyrimidin-7-yl)morpholine] | 63.1 | 4.4 | 
CN(C)S(=O)(=O)NC(=O)c1nc(N2CCCCC2c2cc3nc(N4CCC4)cc(N4CCOCC4)n3n2)c2ccccc2n1 (centres unmarked) [P36, 4-(2-(5-(azetidin-1-yl)-7-morpholinopyrazolo[1,5-a]pyrimidin-2-yl)-piperidin-1-yl)-N—(N,N-dimethylsulfamoyl)quinazoline-2-carboxamide] | 501 | <4 | 
Cc1nc(N2CCCCC2c2cc3nc(N4CC(O)C4)c(C)cn3n2)c2c(C)cccc2n1 (centres unmarked) [P37, 1-(2-(1-(2,5-dimethylquinazolin-4-yl)piperidin-2-yl)-6-methyl-pyrazolo[1,5-a]pyrimidin-5-yl)azetidin-3-ol] | 316 | 4.3 | 
Cc1cn2nc(C3CCCCN3c3nc(Cl)nc4cccc(C)c34)cc2nc1N1CC(O)C1 (centres unmarked) [P40, 1-(2-(1-(2-chloro-5-methylquinazolin-4-yl)piperidin-2-yl)-6-methylpyrazolo[1,5-a]pyrimidin-5-yl)azetidin-3-ol] | 158 | 4.7 | 
Cc1cn2nc(C3CCCCN3c3nc(NS(C)(=O)=O)nc4cccc(C)c34)cc2nc1N1CC(O)C1 (centres unmarked) [P41, N-(4-(2-(5-(3-hydroxyazetidin-1-yl)-6-methylpyrazolo[1,5-a]-pyrimidin-2-yl)piperidin-1-yl)-5-methylquinazolin-2-yl)methanesulfonamide] | 79.4 | <4 | 
Cc1ccc2nc(C)nc(N3CCCCC3c3cc4nc(N5CC(O)C5)c(C)cn4n3)c2c1 (centres unmarked) [P42, 1-(2-(1-(2,6-dimethylquinazolin-4-yl)piperidin-2-yl)-6-methyl-pyrazolo[1,5-a]pyrimidin-5-yl)azetidin-3-ol] | 2510 | <4.6 | 
Cc1ccc2nc(C)nc(N3CCCC[C@H]3c3cc4nc(N5CC(O)C5)c(C)cn4n3)c2c1 [P43, (S)-1-(2-(1-(2,6-dimethylquinazolin-4-yl)piperidin-2-yl)-6-methyl-pyrazolo[1,5-a]pyrimidin-5-yl)azetidin-3-ol] | 15800 | 4.2 | 
Cc1ccc2nc(C)nc(N3CCCC[C@@H]3c3cc4nc(N5CC(O)C5)c(C)cn4n3)c2c1 [P44, (R)-1-(2-(1-(2,6-dimethyl-quinazolin-4-yl)piperidin-2-yl)-6-methylpyrazolo[1,5-a]pyrimidin-5-yl)azetidin-3-ol] | 794 | 4.2 | 
Cc1cccc2nc(O)nc(N3CCCCC3c3cc4nc(N5CCC5)cc(N5CCOCC5)n4n3)c12 (centres unmarked) [P45, 4-(2-(5-(azetidin-1-yl)-7-morpholinopyrazolo[1,5-a]pyrimidin-2-yl)-piperidin-1-yl)-5-methylquinazolin-2-ol] | 200 | 4.2 | 
Cc1cccc2nc(C(N)=O)nc(N3CCCCC3c3cc4nc(N5CCC5)cc(N5CCOCC5)n4n3)c12 (centres unmarked) [P46, 4-(2-(5-(azetidin-1-yl)-7-morpholinopyrazolo[1,5-a]pyrimidin-2-yl)-piperidin-1-yl)-5-methylquinazoline-2-carboxamide] | 316 | 4.3 | 
Cc1c(C2CC2)nc2cc(C3CCCCN3c3ncnc4cccc(C)c34)nn2c1N1CCOCC1 (centres unmarked) [P47, 4-(5-cyclopropyl-6-methyl-2-(1-(5-methylquinazolin-4-yl)piperidin-2-yl)pyrazolo[1,5-a]pyrimidin-7-yl)morpholine] | 501 | 4.6 | 
Cc1ccc2ncnc(N3CCCC[C@@H]3c3cc4nc(N5CC[C@H](N)C5)ccn4n3)c2c1 [P50, (S)-1-(2-((R)-1-(6-methylquinazolin-4-yl)piperidin-2-yl)pyrazolo-[1,5-a]pyrimidin-5-yl)pyrrolidin-3-amine] | 631 | 4.3 | 
Cc1cccc2ncnc(N3CCCCC3c3cc4nc(N5CCC5)cc(N5CCN(C(=O)OC(C)(C)C)CC5)n4n3)c12 (centres unmarked) [P52, tert-butyl4-(5-(azetidin-1-yl)-2-(1-(5-methylquinazolin-4-yl)piperidin-2-yl)pyrazolo[1,5-a]pyrimidin-7-yl)piperazine-1-carboxylate] | 79.4 | 4.7 | 
